Data: patent US10231956B2, “3-(1H-pyrrolo[3,2-C]pyridin-2-YL)-1 H-pyrazolo[4,3-B]pyridines and therapeutic uses thereof” (Samumed, LLC, priority 2015, dated 2019)

Columns and labels:
[1] = system: primary human fibroblasts derived from IPF patients (LL29 cells); assay: Inhibition of fibrotic process: αSMA staining in TGF-β1 treated LL29 fibroblasts; format: cell-based; conditions: Fibroblast; for EC50: 96 h, TGF-β1 20 ng/mL, 4 days, % cells positive for αSMA; for inhibition at 10 µM: given for EC50 >10 μM, TGF-β1, αSMA, read-out: percent inhibition at 10 μM
Procedure, shortened: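 LL29 cells at 1,500/well in F12 with 1% FBS, compounds at 1 μM–1.87 nM (11-point, 0.1% DMSO), TGF-β1 20 ng/mL added 1 h later, 4 days at 37 °C. SYTOX-positive cells excluded; % αSMA-positive cells by immunofluorescence imaging, normalized to TGF-β1/DMSO wells, triplicates fitted for EC50; above 10 μM, % inhibition at 10 μM given.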

[2] = system: Wnt activity (Sp5-Luc reporter, SW480 colon carcinoma cells); assay: Sp5-Luc reporter gene screening assay for Wnt activity in SW480 cells; format: cell-based; conditions: Homo sapiens; for EC50: luminescence, overnight incubation; for inhibition at 10 µM: given for EC50 >10 μM, read-out: percent inhibition at 10 μM
Procedure, shortened: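 Wnt-driven firefly luciferase in SW480 colon carcinoma cells reports pathway activity after overnight compound exposure (10 μM top concentration, 3-fold steps). Signal is normalized to DMSO controls.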

| SMILES | EC50 [1] | EC50 [2] | inhibition at 10 µM [1] | inhibition at 10 µM [2] |
| --- | --- | --- | --- | --- |
| Cc1ccncc1-c1ccc2[nH]nc(-c3cc4c(-c5cc(F)cc(CNS(C)(=O)=O)c5)nccc4[nH]3)c2n1 [Compound 481, N-(3-Fluoro-5-(2-(5-(4-methylpyridin-3-yl)-1H-pyrazolo[4,3-b]pyridin-3-yl)-1H-pyrrolo[3,2-c]pyridin-4-yl)benzyl)methanesulfonamide] | 311 nM | 313 nM | – | – |
| CS(=O)(=O)NCc1cc(F)cc(-c2nccc3[nH]c(-c4n[nH]c5ccc(-c6cncc(NC(=O)Cc7ccccc7)c6)nc45)cc23)c1 [Compound 486, N-(5-(3-(4-(3-Fluoro-5-(methylsulfonamidomethyl)phenyl)-1H-pyrrolo[3,2-c]pyridin-2-yl)-1H-pyrazolo[4,3-b]pyridin-5-yl)pyridin-3-yl)-2-phenylacetamide] | > 10000 nM | > 10000 nM | 37.1% | 19.3% |
| CS(=O)(=O)NCc1cc(F)cc(-c2nccc3[nH]c(-c4n[nH]c5ccc(-c6cncc(NC(=O)C7CCCC7)c6)nc45)cc23)c1 [Compound 498, N-(5-(3-(4-(3-Fluoro-5-(methylsulfonamidomethyl)phenyl)-1H-pyrrolo[3,2-c]pyridin-2-yl)-1H-pyrazolo[4,3-b]pyridin-5-yl)pyridin-3-yl)cyclopentanecarboxamide] | > 10000 nM | 1310 nM | 34.8% | – |
| CS(=O)(=O)NCc1cc(F)cc(-c2nccc3[nH]c(-c4n[nH]c5ccc(-c6cncc(NC(=O)C7CCCCC7)c6)nc45)cc23)c1 [Compound 499, N-(5-(3-(4-(3-Fluoro-5-(methylsulfonamidomethyl)phenyl)-1H-pyrrolo[3,2-c]pyridin-2-yl)-1H-pyrazolo[4,3-b]pyridin-5-yl)pyridin-3-yl)cyclohexanecarboxamide] | 958 nM | 1140 nM | – | – |
| CS(=O)(=O)NCc1cc(F)cc(-c2nccc3[nH]c(-c4n[nH]c5ccc(-c6cncc(CN7CCC(F)(F)C7)c6)nc45)cc23)c1 [Compound 502, N-(3-(2-(5-(5-((3,3-Difluoropyrrolidin-1-yl)methyl)pyridin-3-yl)-1H-pyrazolo[4,3-b]pyridin-3-yl)-1H-pyrrolo[3,2-c]pyridin-4-yl)-5-fluorobenzyl) methanesulfonamide] | 218 nM | 502 nM | – | – |
| CS(=O)(=O)NCc1cc(F)cc(-c2nccc3[nH]c(-c4n[nH]c5ccc(-c6cncnc6)nc45)cc23)c1 [Compound 503, N-(3-Fluoro-5-(2-(5-(pyrimidin-5-yl)-1H-pyrazolo[4,3-b]pyridin-3-yl)-1H-pyrrolo [3,2-c]pyridin-4-yl)benzyl)methanesulfonamide] | > 10000 nM | 745 nM | 0% | – |
| CS(=O)(=O)NCc1cc(F)cc(-c2nccc3[nH]c(-c4n[nH]c5ccc(-c6ccccn6)nc45)cc23)c1 [Compound 504, N-(3-Fluoro-5-(2-(5-(pyridin-2-yl)-1H-pyrazolo[4,3-b]pyridin-3-yl)-1H-pyrrolo[3,2-c]pyridin-4-yl)benzyl)methanesulfonamide] | 1940 nM | 2140 nM | – | – |
| Fc1cccc(-c2nccc3[nH]c(-c4n[nH]c5ccc(-c6cncc(OCc7ccccc7)c6)nc45)cc23)c1 [Compound 518, 5-(5-(Benzyloxy)pyridin-3-yl)-3-(4-(3-fluorophenyl)-1H-pyrrolo[3,2-c]pyridin-2-yl)-1H-pyrazolo[4,3-b]pyridine] | 1040 nM | 4410 nM | – | – |
| Fc1ccc(-c2nccc3[nH]c(-c4n[nH]c5ccc(-c6cncc(OC7CCNCC7)c6)nc45)cc23)cc1 [Compound 528, 3-(4-(4-Fluorophenyl)-1H-pyrrolo[3,2-c]pyridin-2-yl)-5-(5-(piperidin-4-yloxy)pyridin-3-yl)-1H-pyrazolo[4,3-b]pyridine] | 1440 nM | 3830 nM | – | – |
| Fc1ccccc1-c1nccc2[nH]c(-c3n[nH]c4ccc(-c5cn[nH]c5)nc34)cc12 [Compound 539, 3-(4-(2-Fluorophenyl)-1H-pyrrolo[3,2-c]pyridin-2-yl)-5-(1H-pyrazol-4-yl)-1H-pyrazolo[4,3-b]pyridine] | 33 nM | 590 nM | – | – |
| Cc1ncc(-c2ccc3[nH]nc(-c4cc5c(-c6ccncc6)nccc5[nH]4)c3n2)n1C [Compound 573, 5-(1,2-Dimethyl-1H-imidazol-5-yl)-3-(4-(pyridin-4-yl)-1H-pyrrolo[3,2-c]pyridin-2-yl)-1H-pyrazolo[4,3-b]pyridine] | 73 nM | 100 nM | – | – |
| c1cc2[nH]c(-c3n[nH]c4ccc(-c5cncc(OC6CCCCC6)c5)nc34)cc2c(N2CCCCC2)n1 [Compound 607, 5-(5-(Cyclohexyloxy)pyridin-3-yl)-3-(4-(piperidin-1-yl)-1H-pyrrolo[3,2-c]pyridin-2-yl)-1H-pyrazolo[4,3-b]pyridine] | > 10000 nM | 2660 nM | 25.4% | – |
| O=C(CC1CCNCC1)Nc1cncc(-c2ccc3[nH]nc(-c4cc5c(N6CCCCC6)nccc5[nH]4)c3n2)c1 [Compound 609, N-(5-(3-(4-(Piperidin-1-yl)-1H-pyrrolo[3,2-c]pyridin-2-yl)-1H-pyrazolo[4,3-b]pyridin-5-yl)pyridin-3-yl)-2-(piperidin-4-yl)acetamide] | 1080 nM | > 10000 nM | – | 13.3% |
| CN1CCN(c2nccc3[nH]c(-c4n[nH]c5ccc(-c6cncc(NC(=O)CC7CCNCC7)c6)nc45)cc23)CC1 [Compound 641, N-(5-(3-(4-(4-Methylpiperazin-1l-yl)-1H-pyrrolo[3,2-c]pyridin-2-yl)-1H-pyrazolo[4,3-b]pyridin-5-yl)pyridin-3-yl)-2-(piperidin-4-yl)acetamide] | 5000 nM | > 10000 nM | – | 2.1% |
| c1cc2[nH]c(-c3n[nH]c4ccc(-c5cncc(OCCN6CCCC6)c5)nc34)cc2cn1 [Compound 658, 5-(5-(2-(Pyrrolidin-1-yl)ethoxy)pyridin-3-yl)-3-(1H-pyrrolo[3,2-c]pyridin-2-yl)-1H-pyrazolo[4,3-b]pyridine] | 4750 nM | 3910 nM | – | – |
